Reference: ChEMBL document CHEMBL1201862, “PubChem BioAssay data set” (2004)
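Each compound was tested at five concentrations against cells in 96-well plates for 48 hours. Here, GI50 denotes the concentration required for 50% inhibition of growth.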 Activity calls are given as the source filed them. No stated cut-off is given here; in the data, active = GI50 up to about 1.1 µM and inactive = higher.

What was measured:
Test in all cases: DTP human tumour cell line panel, 48 h
A498 = tested on: A498
UO-31 = tested on: UO-31
HOP-92 = tested on: HOP-92
U-251 = tested on: U-251
T47D = tested on: T47D
HT-29 = tested on: HT-29
KM-20L2 = tested on: KM-20L2
HCC 2998 = tested on: HCC 2998
Malme-3M = tested on: Malme-3M
SK-MEL-5 = tested on: SK-MEL-5
OVCAR-5 = tested on: OVCAR-5
KM12 = tested on: KM12
IGROV-1 = tested on: IGROV-1
UACC-62 = tested on: UACC-62
NCI-H522 = tested on: NCI-H522
HOP-62 = tested on: HOP-62
K562 = tested on: K562
NCI-H23 = tested on: NCI-H23
SF-539 = tested on: SF-539
SNB-19 = tested on: SNB-19
RPMI-8226 = tested on: RPMI-8226
NCI/ADR-RES = tested on: NCI/ADR-RES
Hs-578T = tested on: Hs-578T
HL-60 = tested on: HL-60
HCT-15 = tested on: HCT-15
MDA-MB-231 = tested on: MDA-MB-231
SK-MEL-28 = tested on: SK-MEL-28
MCF7 = tested on: MCF7
DLD-1 = tested on: DLD-1
COLO 205 = tested on: COLO 205
DMS-114 = tested on: DMS-114
MDA-N = tested on: MDA-N
LOX IMVI = tested on: LOX IMVI
XF498 = tested on: XF498
OVCAR-8 = tested on: OVCAR-8
M19-MEL = tested on: M19-MEL
DMS-273 = tested on: DMS-273
HCT-116 = tested on: HCT-116
SF-268 = tested on: SF-268
SK-OV-3 = tested on: SK-OV-3
SR = tested on: SR
ACHN = tested on: ACHN
CAKI-1 = tested on: CAKI-1
SNB-78 = tested on: SNB-78
SK-MEL-2 = tested on: SK-MEL-2
A549 = tested on: A549
OVCAR-4 = tested on: OVCAR-4
SF-295 = tested on: SF-295
MDA-MB-435 = tested on: MDA-MB-435
SN12C = tested on: SN12C
786-0 = tested on: 786-0
M14 = tested on: M14
LXFL 529 = tested on: LXFL 529
BT-549 = tested on: BT-549
SNB-75 = tested on: SNB-75
OVCAR-3 = tested on: OVCAR-3
MOLT-4 = tested on: MOLT-4
NCI-H226 = tested on: NCI-H226
UACC-257 = tested on: UACC-257
DU-145 = tested on: DU-145
PC-3 = tested on: PC-3
RXF 393 = tested on: RXF 393
RXF 631 = tested on: RXF 631
EKVX = tested on: EKVX
CCRF-CEM = tested on: CCRF-CEM
SW-620 = tested on: SW-620
TK-10 = tested on: TK-10
NCI-H460 = tested on: NCI-H460
HOP-18 = tested on: HOP-18

Q: Which results are given for `CC(=O)NNc1nc(C)c(C(=O)NNC(=O)C(=O)Nc2nc3ccc([N+](=O)[O-])cc3s2)s1`?
A: GI50 (A498): 33.6 µM (inactive); GI50 (UO-31): 33.2 µM (inactive); GI50 (HOP-92): 28.8 µM (inactive); GI50 (U-251): 47.5 µM (inactive); GI50 (T47D): 22.6 µM (inactive); GI50 (HT-29): 54.7 µM (inactive); GI50 (KM-20L2): > 100 µM (inactive); GI50 (HCC 2998): 42.1 µM (inactive); GI50 (Malme-3M): 35 µM (inactive); GI50 (SK-MEL-5): 42.6 µM (inactive); GI50 (OVCAR-5): 82.8 µM (inactive); GI50 (KM12): 33.9 µM (inactive); GI50 (IGROV-1): 36.9 µM (inactive); GI50 (UACC-62): 51.6 µM (inactive); GI50 (NCI-H522): 18.7 µM (inactive); GI50 (HOP-62): > 82.6 µM (inactive); GI50 (K562): 25 µM (inactive); GI50 (NCI-H23): 44.1 µM (inactive); GI50 (SF-539): 44.7 µM (inactive); GI50 (SNB-19): 81.7 µM (inactive); GI50 (RPMI-8226): 30.5 µM (inactive); GI50 (NCI/ADR-RES): 53.5 µM (inactive); GI50 (Hs-578T): 51.6 µM (inactive); GI50 (HL-60): 36.8 µM (inactive); GI50 (HCT-15): > 68.1 µM; GI50 (MDA-MB-231): 18.7 µM (inactive); GI50 (SK-MEL-28): 65.2 µM (inactive); GI50 (MCF7): 31 µM (inactive); GI50 (DLD-1): 46.1 µM (inactive); GI50 (COLO 205): > 81.1 µM (inactive); GI50 (DMS-114): 24.4 µM (inactive); GI50 (MDA-N): 45.9 µM (inactive); GI50 (LOX IMVI): 54.1 µM (inactive); GI50 (XF498): 25 µM (inactive); GI50 (OVCAR-8): 52.7 µM (inactive); GI50 (M19-MEL): 45.5 µM (inactive); GI50 (DMS-273): 62.4 µM (inactive); GI50 (HCT-116): > 62.5 µM (inactive); GI50 (SF-268): 49.1 µM (inactive); GI50 (SK-OV-3): 64.4 µM (inactive); GI50 (SR): 26.4 µM (inactive); GI50 (ACHN): 50.4 µM (inactive); GI50 (CAKI-1): 30.5 µM (inactive); GI50 (SNB-78): 69.5 µM (inactive); GI50 (SK-MEL-2): 56.9 µM (inactive); GI50 (A549): 67.1 µM (inactive); GI50 (OVCAR-4): 46.7 µM (inactive); GI50 (SF-295): 60.8 µM (inactive); GI50 (MDA-MB-435): 60.4 µM (inactive); GI50 (SN12C): 68.2 µM (inactive); GI50 (786-0): 61.5 µM (inactive); GI50 (M14): > 67.8 µM (inactive); GI50 (LXFL 529): 49.9 µM (inactive); GI50 (BT-549): 45.8 µM (inactive); GI50 (SNB-75): 29.4 µM (inactive); GI50 (OVCAR-3): 15.3 µM (inactive); GI50 (MOLT-4): 28.8 µM (inactive); GI50 (NCI-H226): 80 µM (inactive); GI50 (UACC-257): 77.8 µM (inactive); GI50 (DU-145): 70.1 µM (inactive); GI50 (PC-3): 26.9 µM (inactive); GI50 (RXF 393): > 59.8 µM (inactive); GI50 (RXF 631): 41.6 µM (inactive); GI50 (EKVX): 30.7 µM (inactive); GI50 (CCRF-CEM): 22 µM (inactive); GI50 (SW-620): > 65.9 µM (inactive); GI50 (TK-10): 50.4 µM (inactive); GI50 (NCI-H460): 49 µM (inactive)

Q: Which results are given for `COC(=O)C(CC(=O)c1ccccc1)c1ccccc1NC(C)=O` (centres undefined)?
A: GI50 (A498): > 100 µM (inactive); GI50 (UO-31): 29.9 µM (inactive); GI50 (HOP-92): > 100 µM (inactive); GI50 (U-251): > 100 µM (inactive); GI50 (HT-29): > 100 µM (inactive); GI50 (KM-20L2): > 100 µM (inactive); GI50 (HCC 2998): > 100 µM (inactive); GI50 (Malme-3M): > 100 µM (inactive); GI50 (SK-MEL-5): > 100 µM (inactive); GI50 (OVCAR-5): > 100 µM (inactive); GI50 (KM12): > 100 µM (inactive); GI50 (IGROV-1): > 100 µM (inactive); GI50 (UACC-62): > 100 µM (inactive); GI50 (NCI-H522): > 100 µM (inactive); GI50 (HOP-62): > 100 µM (inactive); GI50 (K562): > 100 µM (inactive); GI50 (NCI-H23): > 100 µM (inactive); GI50 (SF-539): > 100 µM (inactive); GI50 (SNB-19): > 100 µM (inactive); GI50 (RPMI-8226): > 100 µM (inactive); GI50 (HL-60): > 100 µM (inactive); GI50 (HCT-15): > 100 µM; GI50 (SK-MEL-28): > 100 µM (inactive); GI50 (HOP-18): > 100 µM (inactive); GI50 (DLD-1): > 100 µM (inactive); GI50 (COLO 205): > 100 µM (inactive); GI50 (DMS-114): > 100 µM (inactive); GI50 (LOX IMVI): > 100 µM (inactive); GI50 (XF498): > 100 µM (inactive); GI50 (OVCAR-8): > 100 µM (inactive); GI50 (M19-MEL): > 100 µM (inactive); GI50 (HCT-116): > 100 µM (inactive); GI50 (SF-268): > 100 µM (inactive); GI50 (SK-OV-3): > 100 µM (inactive); GI50 (SR): > 100 µM (inactive); GI50 (ACHN): > 100 µM (inactive); GI50 (CAKI-1): > 100 µM (inactive); GI50 (SNB-78): > 100 µM (inactive); GI50 (A549): > 100 µM (inactive); GI50 (OVCAR-4): > 100 µM (inactive); GI50 (SF-295): > 100 µM (inactive); GI50 (SN12C): > 100 µM (inactive); GI50 (786-0): > 100 µM (inactive); GI50 (M14): > 100 µM (inactive); GI50 (LXFL 529): > 100 µM (inactive); GI50 (SNB-75): 87.1 µM (inactive); GI50 (OVCAR-3): > 100 µM (inactive); GI50 (MOLT-4): > 100 µM (inactive); GI50 (NCI-H226): > 100 µM (inactive); GI50 (UACC-257): > 100 µM (inactive); GI50 (RXF 631): > 100 µM (inactive); GI50 (EKVX): > 100 µM (inactive); GI50 (CCRF-CEM): > 100 µM (inactive); GI50 (SW-620): > 100 µM (inactive); GI50 (TK-10): > 100 µM (inactive); GI50 (NCI-H460): > 100 µM (inactive)
